# Assay results: patent US20220251517A1
# Counter-ions that a name gives are not always drawn.
# What was measured:
# [1] = test system: arrhythmic cardiac microtissues (hiPSC-CM, cell line 1); assay: Anti-arrhythmic drug testing on arrhythmic cardiac microtissues (optical mapping)
# [2] = test system: cardiac microtissues (hiPSC-CMs and human cardiac fibroblasts); assay: Arrhythmia induction in 3D cardiac microtissues (brightfield beat rate, optical mapping, stimulation capture); type: cell-based; conditions: for presence of arrhythmias at endpoint: N=3
# Description: (§1) Tissues were allowed to compact for 7 days (Day -7 to 0) and treatment with either arrhythmogenic or control media conditions began on day 8 post-seeding (e.g. Day 0 in FIG. 1A). Arrhythmogenic media consisted of DMEM no glucose (ThermoFisher; 11966025), B-27 minus insulin supplement (1×; ThermoFisher; A1895602), HEPES (10 mM), L-carnitine (2 mM), creatine (5 mM), taurine (5 mM), MEM non-essential amino acids ([…]; ThermoFisher; 11140050), insulin-transferrin-selenium (1×; ThermoFisher; 41400045), galactose (10 mM), MBCD or MBCD-conjugated FAs as follows: hiPSC-CMs were treated with 100 μM FAs (linoleic acid 40 μM, oleic acid 40 μM, and palmitic acid 20 μM; MBCD 0.8 mM); and hESC-CMs were treated with 200 μM FAs (linoleic acid 80 μM, oleic acid 80 μM, and palmitic acid 40 μM; MBCD 1.6 mM)), glutamine (1 mM), and antibiotic-antimycotic. […] Instead, control media were supplemented with glucose (5 mM) and either FA vehicles (MBCD) at a lower dose of MBCD than the arrhythmogenic media (0.5 mM) or no MBCD (to confirm MBCD was the arrhythmogenic agent). Microtissues were treated by addition of media containing the components described above for up to 5 days and analyzed (e.g., imaging, tissue harvesting for isolation of RNA for transcriptomic analysis, fixing tissues for histopathological assessments/staining) at different time points to assess functional and transcriptomic parameters (see FIG. 1A).
# During contractile force measurements, cardiac microtissues were electrically stimulated at 1 Hz and at their respective excitation threshold and videos of the 1:30 PDMS rods were taken for 15 seconds under 10× magnification with a Leica EC3 camera. For tissue compaction and spontaneous beating rate measurements, the tissues were not stimulated.
# To assess the range of stimulation capture, microtissues were stimulated by a silver electrode at 3 Hz and 6V, and the distance from the electrode to which point the cardiac microtissue was not electrically captured by the delivered electrical impulse was marked as the range of stimulation capture (mm) (e.g., see FIG. 1H).
# [3] = test system: 5-day arrhythmic cardiac microtissues; assay: Arrhythmia reversal by removal of MBCD from media; type: cell-based, human; conditions: 5 days arrhythmogenic media
# Description: as §1
# Finally, it was reasoned that if MBCD was causing arrhythmias, removal of MBCD from culture media could reverse arrhythmias. To test this, 5-day arrhythmogenic tissues were cultured in control media for 5 additional days (see FIG. 6A). […] Arrhythmic tissues progressively regained synchronicity, allowing for the measurement of beat frequency.
# [4] = arrhythmic tissues, acute treatment 30 min, lidocaine 17.5 μg/mL
# [5] = isoproterenol added to lidocaine-treated arrhythmic tissues
molecule,measurement,setting,value
"CCCCc1oc2ccccc2c1C(=O)c1cc(I)c(OCCN(CC)CC)c(I)c1 [amiodarone, Amiodarone]","electrophysiological changes (wavefronts per frame, conduction velocity, cycle length)","[1]; arrhythmic tissues, acute treatment 30 min, flecainide 10 μM, propranolol 4 μg/mL, amiodarone 30 μg/mL",did not produce any significant electrophysiological changes
"CCN(CC)CC(=O)Nc1c(C)cccc1C [lidocaine, Lidocaine HCl]",conduction velocity,[1]; [4],significantly decreased
same,cycle length duration,[1]; [4],increasing
same,mean number of wavefronts per frame,[1]; [4],significant reduction
CC(C)NCC(O)c1ccc(O)c(O)c1 (stereo not drawn) [isoproterenol],conduction velocity,[1]; [5],increase
same,cycle length,[1]; [5],reduction
same,mean wavefronts per frame,[1]; [5],no change
BSA-ligated fatty acids: BSA-ligated fatty acids used in place of MBCD-conjugated fatty acids,induction of arrhythmogenesis,[2]; BSA-ligated fatty acids instead of MBCD-conjugated fatty acids,no effect
methyl-β-cyclodextrin [MBCD],development of arrhythmias,"[2]; low MBCD concentration 0.5 mM (control media), 5 days",did not develop arrhythmias
same,presence of arrhythmias at endpoint,"[2]; media containing both MBCD and glucose (5mM), 5 days",arrhythmias were also induced
same,Cx43 and N-Cad expression and co-localization after arrhythmia reversal,[3]; then 5 days control media,significant increase
same,passive force after arrhythmia reversal,[3]; then 5 days control media,without significant changes
same,synchronicity after removal of MBCD,[3]; then 5 days control media,started beating synchronously
same,contractile force of reverted tissues relative to age matched control tissues,"[3]; then control media, plateau, p<0.0001",~50%
O=C[C@H](O)[C@@H](O)[C@@H](O)[C@H](O)CO [galactose],presence of arrhythmias at endpoint,"[2]; media containing only galactose (10 mM), no MBCD",did not become arrhythmic
